Here are results for five molecules from US8940723B2, “Combination of a pyrroloquinoline compound and a beta-lactam antimicrobial agent, mupirocin or chlorhexidine” (Helperby Therapeutics Limited, priority 2010, dated 2015).

The subject of test [1] is Staphylococcus aureus (Oxford). Description: Minimum inhibitory concentration (MIC), broth dilution method. The test is classed as cell-based. The conditions noted are these: S. aureus (Oxford), Iso-Sensitest broth, overnight incubation at 37° C. As to the method:
Staphylococcus aureus (Oxford); Gram positive; Reference strain.
Iso-Sensitest Broth (Oxoid) was used for evaluation of Minimum inhibitory concentrations (MICs), susceptibility tests for antimicrobials, and efficacy of antimicrobial combinations.
The stock solution of each drug was diluted to required concentrations. 10 μl of drug from each dilution was taken and mixed with 290 μl of culture with 10^6 of bacterial cells on a 96-well plate to make the final required concentrations (μg/ml).
The plates were read at 405 nm using a 96-well plate reader Elx 800 equipped with a 405-nm filter (Bio-Tek) before and after incubation. The MIC values of the drugs were determined by comparison of the optical density reading between prior and post drug treatment.

The test system of test [2] is log phase S. aureus (Oxford strain). As to the kind of experiment: Time-kill curve suspension assay, CFU counts, log phase. The format is cell-based, Staphylococcus aureus. As to the method: For CFU counting, the bacterial suspensions were diluted using sterile deionized water or phosphate-buffered saline (PBS, Sigma Aldrich Ltd, Poole, Dorset, UK). 100 μl of 10-fold serial dilutions of bacteria culture were plated on one third of TSA plates in triplicate and incubated 24 to 48 hours at 37° C. The number of cells presented on the plates was counted using an AcoLyte colony counter (Synbiosis) and results were expressed as Colony Forming Units/ml (CFU/ml). […] (b) mupirocin; and (c) chlorhexidine gluconate against S. aureus, in a concentration range from below to above the MIC, was assessed in a suspension assay by the time-kill curve method. […] The wells were then inoculated with 280 μl of S. aureus (Oxford strain) suspension containing 10^7 CFU/ml of inocula. Drug free controls were also included. The microtitre plates were incubated at 37° C. for 16 to 24 hours, read in a 96-well plate reader, then samples were diluted and 100 μl of each dilution was plated out on TSA plates. After 24 to 48 hours incubation CFU was counted. Each test was performed in triplicate and repeated twice. […] The wells were then inoculated with 280 μl of S. aureus (Oxford strain) suspension containing 10^7 CFU/ml of inocula. Drug free controls were also included. The microtitre plates were incubated at 37° C. for 16 to 24 hours, read in a 96-well plate reader, then samples were diluted and 100 μl of each dilution was plated out on TSA plates. After 24 to 48 hours incubation CFU was counted. […] Each test was performed in triplicate and repeated twice. […] The wells were then inoculated with 280 μl of S. aureus (Oxford strain) suspensions containing 10^7 or 10^8 and CFU/ml of inocula. Drug free controls were also included. The microtitre plates were incubated at 37° C. for 16 to 24 hours, read in a 96-well plate reader, then samples were diluted and 100 μl of each dilution was plated out on TSA plates. After 24 to 48 hours incubation CFU was counted. Each test was performed in triplicate and repeated twice. […] The mean bacterial colony count at varying time points was compared by the two-tailed t-test with unequal variance. P values of ≦0.05 indicated significant difference.

Test [3] has as its system Staphylococcus aureus (Oxford). As to the kind of experiment: Minimum bactericidal concentration (MBC), subculture on drug-free TSA plates. The test is classed as cell-based. Particulars: S. aureus (Oxford), subculture on TSA 24 to 48 hours at 37° C. As to the method: Minimum bactericidal concentration (MBC) was determined by subculturing 100 μl of dilutions from the 96-well plate on fresh drug-free TSA agar plates and incubating further for 24 to 48 hours at 37° C.

In test [4] the test system is clinically latent microorganisms. Description: Screening for ability to kill clinically latent microorganisms (method of WO2000028074). The test is classed as cell-based. The text has this: International Patent Application, Publication Number WO2000028074 describes a method of screening compounds to determine their ability to kill clinically latent microorganisms. […] This observation has necessitated the development of novel antimicrobials which may be used to kill clinically latent microorganisms.
By way of example, WO2000028074 describes a suitable method of screening compounds to determine their ability to kill clinically latent microorganisms. A typical method may include the following steps: • (1) growing a bacterial culture to stationary phase; • (2) treating the stationary phase culture with one or more antimicrobial agents at a concentration and or time sufficient to kill growing bacteria, thereby selecting a phenotypically resistant sub-population; • (3) incubating a sample of the phenotypically resistant subpopulation with one or more test compounds or agents; and • (4) assessing any antimicrobial effects against the phenotypically resistant subpopulation.
According to this method, the phenotypically resistant sub-population may be seen as representative of clinically latent bacteria which remain metabolically active in vivo and which can result in relapse or onset of disease.

[5] abbreviates: Staphylococcus aureus, read-out: MIC.
Where [6] appears, read: Staphylococcus aureus, read-out: MBC.

In brackets after ≈: the same amount, converted by molar mass. Entries after “also recorded” stand apart in the source; their conditions may differ. Read-outs that look alike come from different tables or passages of the source.

For the molecule `Cc1nc2ccc(Oc3ccccc3)cc2c2c1CCN2CCc1ccccc1` [4-methyl-8-phenoxy-1-(2-phenylethyl)-2,3-dihydro-1H-pyrrolo[3,2-c]quinoline], the minimal inhibitory concentration (MIC) in test [1] (setting [5]) amounted to 8 µg/mL. Further, the “activity against log phase S. aureus” value in test [2] (agent alone at 4 μg/ml) is “no activities; also recorded: no activity”. Further, the “kind of activity against log phase S. aureus” value in test [2] (pyrroloquinoline alone at 10 and 8 μg/ml) was “bactericidal activity”. For the same molecule, in test [2] (pyrroloquinoline alone at 10 and 8 μg/ml, at 72 hours), the “CFU/ml reduced from 10^7 to” value was “zero”. Moreover, in test [3] (setting [6]), the minimum bactericidal concentration (MBC) stood at 16 µg/mL (≈ 42.1 µM).
In the case of `N=C(NCCCCCCNC(=N)NC(=N)Nc1ccc(Cl)cc1)NC(=N)Nc1ccc(Cl)cc1.O=C(O)[C@H](O)[C@@H](O)[C@H](O)[C@H](O)CO.O=C(O)[C@H](O)[C@@H](O)[C@H](O)[C@H](O)CO` [Chlorhexidine gluconate], the MIC in test [1] was found to be 0.5 µg/mL. This molecule also registered an MBC in test [3] of 2 µg/mL.
Turning to `C/C(=C\C(=O)OCCCCCCCCC(=O)O)C[C@@H]1OC[C@H](C[C@@H]2O[C@H]2[C@@H](C)[C@H](C)O)[C@@H](O)[C@H]1O` [Mupirocin], the MIC in test [1] (setting [5]) was determined as 0.125 µg/mL. For the same molecule, the “kind of activity against log phase S. aureus” value in test [2] (mupirocin alone at 40, 20 and 10 μg/ml) is “bacteriostatic”. Further, the minimal bactericidal concentration (MBC) in test [3] (setting [6]) was 256 µg/mL (≈ 511 µM). The “activity against clinically latent microorganisms” value in test [4] is “little or no activity”.
Consider `CC[C@H]1OC(=O)[C@H](C)[C@@H](O[C@H]2C[C@@](C)(OC)[C@@H](O)[C@H](C)O2)[C@H](C)[C@@H](O[C@@H]2O[C@H](C)C[C@H](N(C)C)[C@H]2O)[C@](C)(O)C[C@@H](C)CN(C)[C@H](C)[C@@H](O)[C@]1(C)O` [azithromycin], for which the “activity against clinically latent microorganisms” value in test [4] is given as “little or no activity”.
On the same count and under the same terms, as for `CC(=O)NC[C@H]1CN(c2ccc(N3CCOCC3)c(F)c2)C(=O)O1` [linezolid], the entry is “little or no activity”.
